Test results taken from patent US20230355597A1, “COMPOUNDS, COMPOSITIONS, AND METHODS FOR THE TREATMENT AND PREVENTION OF AVIAN PATHOGENIC E. COLI (APEC)” (OHIO STATE INNOVATION FOUNDATION, priority 2018, published 2023).
Converted amounts (≈) assume the structure as drawn.

How the values were obtained:
Test in all cases: Antimicrobial susceptibility profile, CAMHB micro-dilution (CLSI)
Format in all cases: cell-based, avian pathogenic Escherichia coli (APEC)
APEC O78 = details: (R) = resistant
APEC O1 = details: (R) = resistant
APEC O2 = details: (R) = resistant
APEC O8 = details: (R) = resistant
APEC O15 = details: (R) = resistant
APEC O18 = details: (R) = resistant
APEC O35 = details: (R) = resistant
APEC O109 = details: (R) = resistant
APEC O115 = details: (R) = resistant
APEC O78-53 = details: APEC O78-53, CAMHB micro-dilution; (R) = resistant
APEC O1-63 = details: APEC O1-63, CAMHB micro-dilution; (R) = resistant
APEC O2-211 = details: APEC O2-211, CAMHB micro-dilution; (R) = resistant

Row | Compound | MIC (APEC O78) | MIC (APEC O1) | MIC (APEC O2) | MIC (APEC O8) | MIC (APEC O15) | MIC (APEC O18) [µg/mL] | MIC (APEC O35) [µg/mL] | MIC (APEC O109) | MIC (APEC O115) | MIC (APEC O78-53) | MIC (APEC O1-63) | MIC (APEC O2-211)
1 | CN(C)[C@@H]1C(=O)C(C(N)=O)=C(O)[C@@]2(O)C(=O)C3=C(O)c4c(O)cccc4[C@@](C)(O)[C@H]3C[C@@H]12 [Tetracycline] | 32 (R) µg/mL | >64 (R) µg/mL | >64 (R) µg/mL | >64 (R) µg/mL | >64 (R) µg/mL | 2 (≈ 4.5 µM) | 1 (≈ 2.25 µM) | 1 µg/mL (≈ 2.25 µM) | >64 (R) µg/mL | >64 (R) µg/mL | 16 (R) µg/mL | >64 (R) µg/mL
2 | CC1(C)S[C@@H]2[C@H](NC(=O)[C@H](N)c3ccccc3)C(=O)N2[C@H]1C(=O)O [Ampicillin] | >64 (R) µg/mL | >64 (R) µg/mL | >64 (R) µg/mL | 4 µg/mL (≈ 11.4 µM) | 2 µg/mL (≈ 5.72 µM) | 4 (≈ 11.4 µM) | 2 (≈ 5.72 µM) | >64 (R) µg/mL | >64 (R) µg/mL | 4 µg/mL (≈ 11.4 µM) | 4 µg/mL (≈ 11.4 µM) | 4 µg/mL (≈ 11.4 µM)
3 | Colistin | 0.25 µg/mL | 0.5 µg/mL | 0.5 µg/mL | 1 µg/mL | 1 µg/mL | 1 | 1 | 0.5 µg/mL | 1 µg/mL | 0.5 µg/mL | 4 (R) µg/mL | 4 (R) µg/mL
